In patent US6609014B1, “Use of PDT to inhibit intimal hyperplasia” (QLT Inc., priority 1999, dated 2003):
Values joined by “and” are separate entries in the source; they are usually repeats but may differ in a detail not shown here. Equal entries are not always repeated.

Columns and labels:
Type in all cases: in vivo, Domestic swine
[1] = system: intimal hyperplasia in the vein of AV fistulae between the carotid artery and internal jugular vein; experiment: One-month dose optimization: PDT of bilateral end-to-side AV fistulae, morphometric analysis of vein cross-sections; set-up: key to PDT-treated fistula thrombosed (T) / PDT-treated fistula thrombosed: T = thrombosed; settings: for Percent Lumen Compromised by Intimal Hyperplasia, PDT, Block #1 / Percent Lumen Compromised by Intimal Hyperplasia, PDT, Block #2 / Percent Lumen Compromised by Intimal Hyperplasia, Control-PDT, Block #1, Mean / Percent Lumen Compromised by Intimal Hyperplasia, Control-PDT, Block #2, Mean / Percent Lumen Compromised by Intimal Hyperplasia, PDT, Block #2, Mean / Percent Lumen Compromised by Intimal Hyperplasia, PDT, Block #1, Mean / PDT-treated fistula thrombosed (T) / Percent Lumen Compromised by Intimal Hyperplasia, Control-PDT, Block #1 / Percent Lumen Compromised by Intimal Hyperplasia, Control-PDT, Block #2: 40 min OR lamp light
Text: Domestic swine (male, 40-50 kg) were used for experiments related to the present invention. Extensive research has been performed to characterize the changes leading to intimal hyperplasia (IH) in the arteries and veins of swine, which closely resemble those in humans (22). AV fistulae were created in several pigs to confirm that measurable IH developed in the vein, just distal to the anastomoses, within one month (FIG. 1A).
Pigs were recovered and left for four weeks at which time they were exsanguinated and perfused with 10% formalin. The fistulae were surgically excised for processing and wax embedding for histology (FIGS. 1A and 2). Wax blocks containing the fistulae were cut to provide sections containing a cross-section of the anastomoses, including the artery and vein distal to the sutures (FIGS. 1A, 1B, and 3).
A porous balloon catheter was introduced into the lumen of veins to deliver either 2 mL of BPD-MA (diluted in 5% dextrose in water) or 5% dextrose in water (control), at a delivery pressure of 2 mm Hg. Two minutes later, the photosensitizer (or dextrose) was rinsed out with heparinized saline before light exposure.
The adventitia of the vein was exposed to the operating room (OR) lamp light for 40 minutes (a combination of incandescent bulbs and fluorescence tubes—approximately 1 J/cm^2).
(§1) Measurements and observations were made by morphometric analysis of cross-sections of fistulae stained with Verhoeff's elastic to assess the integrity of the vessel wall and also clearly demarcate the internal elastic lamina (IEL) for the measurement of IH. Areas within the lumen and those circumscribed by the internal elastic lamina (IEL) and the external elastic lamina (EEL) were measured directly using the Optimas (Optimas Corporation, Bothell, Wash., USA) program. The areas of the intima and the media were calculated by subtraction: intimal area equals the […], and medial area equals EEL area minus IEL area.
Statistical analysis was conducted using the two tailed t-Test (two-sample assuming unequal variances) for comparisons between groups of PDT-treated and control fistulae and paired t-tests for paired comparisons of PDT-treated and control fistulae.
End-to-side AV fistulae between the carotid artery and internal jugular vein were treated at four different BPD-MA doses (0.015, 0.15, 0.5 & 1.5 mg/2 mL) and exposed to 40 minutes of operating room (OR) lamp and ambient light to determine the optimal doses required to inhibit IH while causing minimal damage to the vein wall. Bilateral AV fistulae were created. For example, one side was treated with saline and 40 min. OR lamp light, while the other side was treated with BPD-MA (0.015 mg/2 mL or the other doses) and 40 min. OR lamp light after creating the anastomoses. At least six pigs were treated using each BPD-MA dose and the 40 minutes OR lamp light delivery system.
Optimization of PS and radiation dose was performed. Bilateral end-to-side AV fistula between the carotid artery and jugular vein were created in 29 pigs. Animals were sacrificed 4 weeks after PDT, and the fistulae were surgically excised and processed for histology. Computer-assisted measurement of the lumen area and,the area delimited by the internal elastic lamina (IEL) and external elastic lamina (EEL) was performed on 5 sections of the vein. The IH was calculated by subtracting the lumen area from the […]. Medial hyperplasia was calculated by subtracting the IEL area from the EEL area.
For each fistula, the percent of the lumen compromised by the intima hyperplasia (%LCIH=IEL−Lumen/IEL) was calculated for the first two complete blocks from the tip of the anastomosis, since IH is most often observed clinically within 1 cm of the anastomosis. Differences in the % LCIH between control and treated sides were averaged for each dose group. Results are presented in Tables 1 a and 1b as well as illustrated in FIGS. 2 and 3.

[2] = system: elastic lamina of the vein; experiment: Elastin (Verhoeff's elastic) staining of AV fistula veins after PDT; settings: 48 h and 1 month samples
Experimental: as §1

[3] = system: PCNA positive (proliferating) cells in the vein; experiment: PCNA immunocytochemistry of AV fistula veins 48 hours after PDT
Experimental: In Example 4, immunohistochemistry was use to study the early phase of cell proliferation. Immunocytochemistry for the proliferating cell nuclear antigen (PCNA, mouse antibody clone PC10, Sigma) was used to assess cell proliferation in the vein. PCNA positive cells were counted using the Optimas image analysis program.
For the purposes of determining the early cellular effects of PDT on the vein, bilateral AV fistulae were created in six pigs and treated sides were given 0.15 mg BPD-MA (0.15 mg/2 mL) and 40 minutes OR light. After 48 hours these pigs were sacrificed and the fistulae were recovered and processed for histological evaluation. This is not enough time for IH to have developed, but the cellular activation which leads to IH may be detectable. […] Immunocytochemistry for the proliferating cell nuclear antigen (PCNA) was used to assess cell proliferation in the tissue (Table 3).

[4] = 0.015 mg BPD-MA/2 mL into vein lumen, one month, individual pigs
[5] = 0.015 mg BPD-MA/2 mL, one month, group mean
[6] = 0.015 mg BPD-MA/2 mL, one month, individual pigs
[7] = 0.15 mg BPD-MA, OR lamp, one month, group mean
[8] = 0.15 mg BPD-MA, OR lamp, one month, individual pigs
[9] = 0.15 mg BPD-MA/2 mL into vein lumen, one month, individual pigs
[10] = 0.15 mg BPD-MA/2 mL, one month, group mean
[11] = 0.15 mg BPD-MA/2 mL, one month, individual pigs
[12] = 0.15 mg BPD-MA, one month, relative to control mean
[13] = 0.15 mg BPD-MA, one month, treated vs control fistulae
[14] = 0.5 mg BPD-MA/2 mL into vein lumen, one month, individual pigs
[15] = 0.5 mg BPD-MA/2 mL, one month, group mean
[16] = 0.5 mg BPD-MA/2 mL, one month, individual pigs
[17] = 1.5 mg BPD-MA/2 mL into vein lumen, one month, individual pigs
[18] = 1.5 mg BPD-MA/2 mL, one month, group mean
[19] = 1.5 mg BPD-MA/2 mL, one month, individual pigs
[20] = 0.15 mg BPD-MA (0.15 mg/2 mL), 40 minutes OR light, six pigs

Substance: benzoporphyrin derivative monoacid ring A [BPD-MA]
- Percent Lumen Compromised by Intimal Hyperplasia, PDT, Block #1 [1, 4]: 3.1% and 21.3% and 9% and 30.3% and 3.4% and 2.2%
- Percent Lumen Compromised by Intimal Hyperplasia, PDT, Block #2 [1, 4]: 2.4% and 2.3% and 5% and 13% and 8.6% and 1.8%
- Percent Lumen Compromised by Intimal Hyperplasia, Control-PDT, Block #1, Mean [1, 5]: 1.5%
- Percent Lumen Compromised by Intimal Hyperplasia, Control-PDT, Block #2, Mean [1, 5]: 2.9%
- Percent Lumen Compromised by Intimal Hyperplasia, PDT, Block #2, Mean ([1]; 0.015 mg BPD-MA/2 mL, one month, group mean, p = 0.36 vs control): 5.5%
- Percent Lumen Compromised by Intimal Hyperplasia, PDT, Block #1, Mean ([1]; 0.015 mg BPD-MA/2 mL, one month, group mean, p = 0.39 vs control): 11.6%
- PDT-treated fistula thrombosed (T) [1, 6]: T
- Percent Lumen Compromised by Intimal Hyperplasia, Control-PDT, Block #1 [1, 6]: −0.2% and 10.2% and −4% and −27.2% and 24.9% and 5.3%
- Percent Lumen Compromised by Intimal Hyperplasia, Control-PDT, Block #2 [1, 6]: −0.2% and 27.1% and −2% and −6.5% and −1.9% and 0.9%
- Change in amount of IH between control and treated veins ([1]; 0.015 mg BPD-MA, one month): little change
- Percent Medial Hyperplasia, PDT, Block #1, Mean [1, 7]: 10.0%
- Percent Medial Hyperplasia, PDT, Block #2, Mean [1, 7]: 11.5%
- PDT-treated fistula thrombosed [1, 8]: T
- Percent Medial Hyperplasia, PDT, Block #1 [1, 8]: 5.9% and 15.3% and 6.2% and 12.5% and 9.8%
- Percent Medial Hyperplasia, PDT, Block #2 [1, 8]: 10.3% and 5.7% and 18.2% and 9.8% and 13.7%
- Percent Lumen Compromised by Intimal Hyperplasia, PDT, Block #1 [1, 9]: 7.1% and 19.3% and 4.6% and 9.2% and 6.9% and 21.1%
- Percent Lumen Compromised by Intimal Hyperplasia, PDT, Block #2 [1, 9]: 7% and 9.1% and 6.7% and 2.5% and 3.6% and 8.6%
- Percent Lumen Compromised by Intimal Hyperplasia, Control-PDT, Block #1, Mean [1, 10]: 7.0%
- Percent Lumen Compromised by Intimal Hyperplasia, Control-PDT, Block #2, Mean [1, 10]: 9.25%
- Percent Lumen Compromised by Intimal Hyperplasia, PDT, Block #2, Mean ([1]; 0.15 mg BPD-MA/2 mL, one month, group mean, p = 0.06 vs control): 6.3%
- Percent Lumen Compromised by Intimal Hyperplasia, PDT, Block #1, Mean ([1]; 0.15 mg BPD-MA/2 mL, one month, group mean, p = 0.095 vs control): 11.4%
- PDT-treated fistula thrombosed (T) [1, 11]: T
- Percent Lumen Compromised by Intimal Hyperplasia, Control-PDT, Block #1 [1, 11]: 24.2% and −1.5% and 8.2% and −2.9%
- Percent Lumen Compromised by Intimal Hyperplasia, Control-PDT, Block #2 [1, 11]: 2.7% and 14.8% and 0.5% and 19%
- Relative reduction of intimal hyperplasia (mean PDT-induced decrease), first block [1, 12]: 38%
- Relative reduction of intimal hyperplasia (mean PDT-induced decrease), second block [1, 12]: 55%
- Reduction in % LCIH, first block [1, 13]: 7.0%
- Reduction in % LCIH, second block [1, 13]: 9.3%
- Difference in medial thickness between PDT-treated and control samples, block 2 ([1]; 0.15 mg/2 mL, one month): little difference
- Difference in medial thickness between PDT-treated and control samples, first block ([1]; 0.15 mg/2 mL, one month): 44%
- Percent Lumen Compromised by Intimal Hyperplasia, PDT, Block #1 [1, 14]: 18.1% and 16.6% and 32.0%
- Percent Lumen Compromised by Intimal Hyperplasia, PDT, Block #2 [1, 14]: 11.2% and 6.8% and 3.4%
- Percent Lumen Compromised by Intimal Hyperplasia, Control-PDT, Block #1, Mean [1, 15]: 0.5%
- Percent Lumen Compromised by Intimal Hyperplasia, Control-PDT, Block #2, Mean [1, 15]: 0.9%
- Percent Lumen Compromised by Intimal Hyperplasia, PDT, Block #1, Mean [1, 15]: 22.2%
- Percent Lumen Compromised by Intimal Hyperplasia, PDT, Block #2, Mean [1, 15]: 7.1%
- PDT-treated fistula thrombosed (T) [1, 16]: T
- Percent Lumen Compromised by Intimal Hyperplasia, Control-PDT, Block #1 [1, 16]: −13.0% and 5.1% and 9.4%
- Percent Lumen Compromised by Intimal Hyperplasia, Control-PDT, Block #2 [1, 16]: −8.3% and 2.1% and 9.0%
- Difference in IH between treated and control fistulae ([1]; 0.5 mg BPD-MA, one month): Little difference
- Percent Lumen Compromised by Intimal Hyperplasia, PDT, Block #1 [1, 17]: 19.4% and 17.4% and 21.6% and 41.8% and 12.7%
- Percent Lumen Compromised by Intimal Hyperplasia, PDT, Block #2 [1, 17]: 43.0% and 1.7% and 11.7% and 53.8% and 13.9%
- Percent Lumen Compromised by Intimal Hyperplasia, Control-PDT, Block #1, Mean [1, 18]: −14.9%
- Percent Lumen Compromised by Intimal Hyperplasia, Control-PDT, Block #2, Mean [1, 18]: −23.6%
- Percent Lumen Compromised by Intimal Hyperplasia, PDT, Block #1, Mean [1, 18]: 22.6%
- Percent Lumen Compromised by Intimal Hyperplasia, PDT, Block #2, Mean [1, 18]: 24.8%
- PDT-treated fistula thrombosed (T) [1, 19]: T
- Percent Lumen Compromised by Intimal Hyperplasia, Control-PDT, Block #1 [1, 19]: −0.7% and −13.7% and −38.9% and −6.2%
- Percent Lumen Compromised by Intimal Hyperplasia, Control-PDT, Block #2 [1, 19]: −37.9% and 5.1% and −49.9% and −11.8%
- Effect on IH ([1]; 1.5 mg dose BPD-MA, one month): appeared to induce IH
- Effect on development of IH, high doses ([1]; PDT with high doses of BPD-MA): either did not modulate the development of IH or actually induced IH
- Thrombogenicity of vessel wall, high doses ([1]; PDT with high doses of BPD-MA, one month): appeared to render the vessel wall more thrombogenic
- Percent IH in PDT-treated vs control fistulae, responders only ([1]; all animals 0.015 to 1.5 mg/2 ml BPD-MA, excluding those with less than 10% IH in control fistulae, Block 1 p=0.03, Block 2 p=0.02): significantly less
- Average one-month thrombosis incidence, PDT-treated fistulae ([1]; all doses (0.015-1.5 mg/2 mL BPD-MA), control fistulae 26.0%): 26.6%
- Effect on IH at the anastomosis of arteriovenous grafts, low doses ([1]; low doses (0.15 mg/2 ml) locally delivered BPD-MA, ambient light from operating room lamps): resulted in the reduction of IH
- Incidence of thrombosis, low-dose PDT ([1]; low-dose PDT, one month): not associated with an increase in the incidence of thrombosis
- Effect of PDT on medial thickening ([1]; one month): did not affect medial thickening
- Number of fistulae that thrombosed vs drug dose ([1]; one month, 0.015-1.5 mg/2 mL): correlated roughly with increasing drug dose
- Statistical significance of differences in intimal thickening between PDT-treated and control veins ([1]; one month, marked with some doses (0.15 mg)): not statistically significant
- Damage to the elastic lamina due to PDT [2]: no sign of damage to the elastic lamina
- MEAN PERCENT OF PCNA POSITIVE CELLS PER TISSUE AREA, PDT, BLOCK 1 [3, 20]: 0.33%
- MEAN PERCENT OF PCNA POSITIVE CELLS PER TISSUE AREA, PDT, BLOCK 2 [3, 20]: 0.74%
- MEAN PERCENT OF PCNA POSITIVE CELLS PER TISSUE AREA, PDT, BLOCK 3 [3, 20]: 0.65%
- Reduction of number of proliferating cells at the anastomosis of the vein ([3]; low-dose PDT (0.15 mg BPD-MA)): 2 fold
